US10464911B2, “1,3,4-oxadiazole sulfamide derivative compounds as histone deacetylase 6 inhibitor, and the pharmaceutical composition comprising the same” (Chong Kun Dang Pharmaceutical Corp., priority 2015, dated 2019)
Counter-ions that a name gives are not always drawn.

Target: human recombinant HDAC6 (Homo sapiens (Human), UniProt Q9UBN7)
Experiment: HDAC6 enzyme activity inhibition assay (HDAC Fluorimetric Drug Discovery Kit)
Type: biochemical
Settings: for HDAC6 selectivity (fold): HDAC6 versus HDAC1; for IC50: human recombinant HDAC6, same protocol as HDAC1 test
Experimental: In order to examine the HDAC6 selectivity of the compounds of formula I of the present invention by HDAC1 and HDAC6 enzymatic activity inhibition assays, an experiment was performed using a conventional substance as a control.
HDAC enzyme activity was measured using a HDAC Fluorimetric Drug Discovery Kit (BML-AK511, 516, Enzo Life Science). For the HDAC1 enzyme activity test, human recombinant HDAC1 (BML-SE456) was used as an enzyme source, and Fluor de Lys®-“SIRT1 (BNL-KI177) was used as a substrate. A 5-fold dilution of the compound was seeded into a 96-well plate, and then 0.3 μg of the enzyme and 10 μM of the substrate were added to each well of the plate and allowed to react at 30 for 60 minutes. Then, Fluor de Lys®-Developer II (BML-KI176) was added thereto and allowed to react for 30 minutes, after which the fluorescence value (Ex 360, Em 460) was measured using a multi-plate reader (Flexstation 3, Molecular Device). The HDAC6 enzyme was tested using human recombinant HDAC6 (382180) (Calbiochem) according to the same protocol as the HDAC1 enzyme activity test method. Based on the resulting values, each IC50 value was calculated using GraphPad Prism4.0 program.

Sequence of human recombinant HDAC6 (Q9UBN7 whole entry): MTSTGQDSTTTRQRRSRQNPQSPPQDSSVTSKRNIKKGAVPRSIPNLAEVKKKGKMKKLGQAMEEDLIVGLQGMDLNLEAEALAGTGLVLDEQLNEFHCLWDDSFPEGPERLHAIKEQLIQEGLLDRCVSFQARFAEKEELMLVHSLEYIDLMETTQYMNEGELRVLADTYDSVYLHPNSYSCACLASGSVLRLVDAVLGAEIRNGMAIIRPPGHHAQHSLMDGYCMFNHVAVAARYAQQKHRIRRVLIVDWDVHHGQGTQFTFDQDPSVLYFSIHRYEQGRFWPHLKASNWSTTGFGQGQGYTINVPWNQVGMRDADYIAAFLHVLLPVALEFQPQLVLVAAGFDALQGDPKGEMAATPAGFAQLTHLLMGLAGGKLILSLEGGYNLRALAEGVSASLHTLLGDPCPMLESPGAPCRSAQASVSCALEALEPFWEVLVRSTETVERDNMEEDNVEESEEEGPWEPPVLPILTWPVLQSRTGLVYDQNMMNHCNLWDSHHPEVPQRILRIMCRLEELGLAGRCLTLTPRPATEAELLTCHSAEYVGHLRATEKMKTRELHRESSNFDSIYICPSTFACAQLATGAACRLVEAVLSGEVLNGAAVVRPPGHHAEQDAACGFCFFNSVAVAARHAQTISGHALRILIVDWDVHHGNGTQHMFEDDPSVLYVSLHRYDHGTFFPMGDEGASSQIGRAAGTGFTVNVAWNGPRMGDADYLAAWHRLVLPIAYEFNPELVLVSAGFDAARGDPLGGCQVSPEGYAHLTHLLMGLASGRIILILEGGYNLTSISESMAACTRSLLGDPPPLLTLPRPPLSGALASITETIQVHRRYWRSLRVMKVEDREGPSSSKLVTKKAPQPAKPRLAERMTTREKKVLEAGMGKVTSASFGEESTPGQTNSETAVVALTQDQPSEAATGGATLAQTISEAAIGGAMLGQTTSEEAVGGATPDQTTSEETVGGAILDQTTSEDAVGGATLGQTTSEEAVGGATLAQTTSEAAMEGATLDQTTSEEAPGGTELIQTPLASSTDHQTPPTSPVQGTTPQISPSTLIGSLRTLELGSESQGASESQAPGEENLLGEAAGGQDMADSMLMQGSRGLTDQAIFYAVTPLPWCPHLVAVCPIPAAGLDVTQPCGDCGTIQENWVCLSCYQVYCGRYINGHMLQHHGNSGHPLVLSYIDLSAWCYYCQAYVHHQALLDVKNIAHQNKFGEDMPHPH

HDAC6 selectivity (fold)	IC50	SMILES
5882 fold	17 nM	C[C@H]1CN(S(=O)(=O)N(Cc2ccc(-c3nnc(C(F)F)o3)cn2)c2cccc(Cl)c2)CCN1C1COC1 [Compound 11830, (S)—N-(3-chlorophenyl)-N-((5-(5-(difluoromethyl)-1,3,4-oxadiazol-2-yl)pyridin-2-yl)methyl)-3-methyl-4-(oxetan-3-yl)piperazine-1-sulfonamide]
1411 fold	71 nM	CC(=O)N1CCN(S(=O)(=O)N(Cc2ccc(-c3nnc(C(F)(F)F)o3)cc2F)c2ccccc2)CC1 [Compound 11294, 4-acetyl-N-(2-fluoro-4-(5-(trifluoromethyl)-1,3,4-oxadiazol-2-yl)benzyl)-N-phenylpiperazine-1-sulfonamide]
946 fold	105 nM	CCN1[C@H](C)CN(S(=O)(=O)N(Cc2ccc(-c3nnc(C(F)F)o3)cc2)c2ccccc2)C[C@@H]1C [Compound 11640, (3S,5R)—N-(4-(5-(difluoromethyl)-1,3,4-oxadiazol-2-yl)benzyl)-4-ethyl-3,5-dimethyl-N-phenylpiperazine-1-sulfonamide]
770 fold	130 nM	C[C@@H]1CN(S(=O)(=O)N(Cc2ccc(-c3nnc(C(F)F)o3)cc2)c2ccccc2)C[C@H](C)N1C(=O)C(F)F [Compound 11644, (3S,5R)-4-(2,2-difluoroacetyl)-N-(4-(5-(difluoromethyl)-1,3,4-oxadiazol-2-yl)benzyl)-3,5-dimethyl-N-phenylpiperazine-1-sulfonamide]
1371 fold	73 nM	CN1CCN(S(=O)(=O)N(Cc2ccc(-c3nnc(C(F)(F)F)o3)cc2F)c2cccc(F)c2)CC1 [Compound 11312, N-(2-fluoro-4-(5-(trifluoromethyl)-1,3,4-oxadiazol-2-yl)benzyl)-N-(3-fluorophenyl)-4-methylpiperazine-1-sulfonamide]
6863 fold	15 nM	CN1CCN(S(=O)(=O)N(Cc2ccc(-c3nnc(C(F)F)o3)cn2)c2ccccc2)CC1 [Compound 11363, N-((5-(5-(difluoromethyl)-1,3,4-oxadiazol-2-yl)pyridin-2-yl)methyl)-4-methyl-N-phenylpiperazine-1-sulfonamide]
2380 fold	42 nM	Cc1cccc(N(Cc2ccc(-c3nnc(C(F)F)o3)cn2)S(=O)(=O)N2CCN(C3COC3)[C@@H](C)C2)c1 [Compound 11828, (S)—N-((5-(5-(difluoromethyl)-1,3,4-oxadiazol-2-yl)pyridin-2-yl)methyl)-3-methyl-4-(oxetan-3-yl)-N-(m-tolyl)piperazine-1-sulfonamide]
1311 fold	76 nM	CS(=O)(=O)N1CCN(S(=O)(=O)N(Cc2ccc(-c3nnc(C(F)(F)F)o3)cc2F)c2cccc(F)c2)CC1 [Compound 11310, N-(2-fluoro-4-(5-(trifluoromethyl)-1,3,4-oxadiazol-2-yl)benzyl)-N-(3-fluorophenyl)-4-(methylsulfonyl)piperazine-1-sulfonamide]
1333 fold	75 nM	CN1CCN(S(=O)(=O)N(Cc2ccc(-c3nnc(C(F)(F)F)o3)cc2F)c2ccccc2)CC1 [Compound 11298, N-(2-fluoro-4-(5-(trifluoromethyl)-1,3,4-oxadiazol-2-yl)benzyl)-4-methyl-N-phenylpiperazine-1-sulfonamide]
819 fold	122 nM	O=S(=O)(N1CCC2(CC1)CN(C1CCC1)C2)N(Cc1ccc(-c2nnc(C(F)F)o2)cc1)c1ccccc1 [Compound 11789, 2-cyclobutyl-N-(4-(5-(difluoromethyl)-1,3,4-oxadiazol-2-yl)benzyl)-N-phenyl-2,7-diazaspiro[3.5]nonane-7-sulfonamide]
2777 fold	36 nM	O=S(=O)(N1CCN(C2CCC2)CC1)N(Cc1ccc(-c2nnc(C(F)F)o2)cn1)c1cccc(Cl)c1 [Compound 11831, N-(3-chlorophenyl)-4-cyclobutyl-N-((5-(5-(difluoromethyl)-1,3,4-oxadiazol-2-yl)pyridin-2-yl)methyl)piperazine-1-sulfonamide]
751 fold	133 nM	CCC(=O)N1CCN(S(=O)(=O)N(Cc2ccc(-c3nnc(C(F)(F)F)o3)cc2F)c2ccccc2)CC1 [Compound 11295, N-(2-fluoro-4-(5-(trifluoromethyl)-1,3,4-oxadiazol-2-yl)benzyl)-N-phenyl-4-propionylpiperazine-1-sulfonamide]
2366 fold	42 nM	CCN1CCN(S(=O)(=O)N(Cc2ccc(-c3nnc(C(F)F)o3)cc2F)c2ccccc2)CC1 [Compound 11307, N-(4-(5-(difluoromethyl)-1,3,4-oxadiazol-2-yl)-2-fluorobenzyl)-4-ethyl-N-phenylpiperazine-1-sulfonamide]
561 fold	178 nM	O=S(=O)(N1CCC2(CC1)CN(C1COC1)C2)N(Cc1ccc(-c2nnc(C(F)F)o2)cc1)c1ccccc1 [Compound 11788, N-(4-(5-(difluoromethyl)-1,3,4-oxadiazol-2-yl)benzyl)-2-(oxetan-3-yl)-N-phenyl-2,7-diazaspiro[3.5]nonane-7-sulfonamide]
1443 fold	69 nM	C[C@@H]1CN(S(=O)(=O)N(Cc2ccc(-c3nnc(C(F)F)o3)cc2)c2ccccc2)C[C@H](C)N1C [Compound 11643, (3S,5R)—N-(4-(5-(difluoromethyl)-1,3,4-oxadiazol-2-yl)benzyl)-3,4,5-trimethyl-N-phenylpiperazine-1-sulfonamide]
3061 fold	33 nM	CS(=O)(=O)N1CCN(S(=O)(=O)N(Cc2ccc(-c3nnc(C(F)F)o3)cc2F)c2cccc(F)c2)CC1 [Compound 11314, N-(4-(5-(difluoromethyl)-1,3,4-oxadiazol-2-yl)-2-fluorobenzyl)-N-(3-fluorophenyl)-4-(methylsulfonyl)piperazine-1-sulfonamide]
1234 fold	81 nM	O=S(=O)(N1CCNCC1)N(Cc1ccc(-c2nnc(C(F)F)o2)cc1F)c1cccnc1 [Compound 11317, N-(4-(5-(difluoromethyl)-1,3,4-oxadiazol-2-yl)-2-fluorobenzyl)-N-(pyridin-3-yl)piperazine-1-sulfonamide Dihydrochloride]
142 fold	705 nM	CC(=O)N1CCN(CCN(C)S(=O)(=O)N(Cc2ccc(-c3nnc(C(F)F)o3)cc2)c2ccccc2)CC1 [Compound 11713, 2-((4-(((N-methyl-N-(2-(4-acetylpiperazin-1-yl)ethyl)sulfamoyl)(phenyl)amino)methyl))phenyl)-5-(difluoromethyl)-1,3,4-oxadiazole]
2168 fold	46 nM	CC(C)N1CCN(S(=O)(=O)N(Cc2ccc(-c3nnc(C(F)F)o3)cc2F)c2ccccc2)CC1 [Compound 11308, N-(4-(5-(difluoromethyl)-1,3,4-oxadiazol-2-yl)-2-fluorobenzyl)-4-isopropyl-N-phenylpiperazine-1-sulfonamide]
861 fold	116 nM	CC(C)N1CCN(S(=O)(=O)N(Cc2ccc(-c3nnc(C(F)(F)F)o3)cc2F)c2ccccc2)CC1 [Compound 11300, N-(2-fluoro-4-(5-(trifluoromethyl)-1,3,4-oxadiazol-2-yl)benzyl)-4-isopropyl-N-phenylpiperazine-1-sulfonamide]
3703 fold	27 nM	O=S(=O)(N1CCN(C2CCC2)CC1)N(Cc1ccc(-c2nnc(C(F)F)o2)cn1)c1ccc(F)c(Cl)c1 [Compound 11671, N-(3-chloro-4-fluorophenyl)-4-cyclobutyl-N-((5-(5-(difluoromethyl)-1,3,4-oxadiazol-2-yl)pyridin-2-yl)methyl)piperazine-1-sulfonamide]
1507 fold	66 nM	CC(=O)N1CCN(S(=O)(=O)N(Cc2ccc(-c3nnc(C(F)(F)F)o3)cc2F)c2cccnc2)CC1 [Compound 11322, 4-acetyl-N-(2-fluoro-4-(5-(trifluoromethyl)-1,3,4-oxadiazol-2-yl)benzyl)-N-(pyridin-3-yl)piperazine-1-sulfonamide]
287 fold	348 nM	CCCN1[C@H](C)CN(S(=O)(=O)N(Cc2ccc(-c3nnc(C(F)F)o3)cc2)c2ccccc2)C[C@@H]1C [Compound 11642, (3S,5R)—N-(4-(5-(difluoromethyl)-1,3,4-oxadiazol-2-yl)benzyl)-3,5-dimethyl-N-phenyl-4-propylpiperazine-1-sulfonamide]
1911 fold	52 nM	O=S(=O)(N1CCOCC1)N(Cc1ccc(-c2nnc(C(F)F)o2)cc1)c1ccc(F)cc1 [Compound 11199, N-(4-(5-(difluoromethyl)-1,3,4-oxadiazol-2-yl)benzyl)-N-(4-fluorophenyl)morpholine-4-sulfonamide]
3622 fold	28 nM	Cl.O=S(=O)(N1CCNCC1)N(Cc1ccc(-c2nnc(C(F)F)o2)cc1F)c1ccccc1 [Compound 11301, N-(4-(5-(difluoromethyl)-1,3,4-oxadiazol-2-yl)-2-fluorobenzyl)-N-phenylpiperazine-1-sulfonamide Hydrochloride]
